Test results as given in patent US20200009020A1, “Caries-Resistant Composite Resin” (Den-Mat Holdings, LLC, priority 2016, published 2020).

What was measured:
[1] = Translucency of a direct filling composite resin; type: physicochemical
Description: When zinc oxide is incorporated into a chemical for use in the oral cavity, it is typically incorporated for its function as an opacifying agent and can be added to a product for this function alone. However, there is a limit to the amount that can be added. Resins are esthetic restorative materials and require high translucency to be esthetic. For this reason, the amount of zinc oxide that may be added is limited to less than 0.8 wt. fract. See Table 5 for the upper limits of zinc oxide that can be incorporated into a direct fill composite resin while maintaining high translucency.
In Table 5, as the wt. fraction of Zinc Oxide is increased, the opacity also increases to a level that is not considered suitable for use as a dental composite resin for esthetic purposes. For esthetic purposes, the dental composite resin must be sufficiently translucent to mimic the appearance of natural dentin. Beyond this level, the opacity becomes too high and the restoration appears as chalky white.

[2] = tested on: bacteria; experiment: Antimicrobial activity, modified AATCC TM 100-2012 (general statement); type: cell-based; details: modified AATCC TM 100-2012 test
Description: (§1) Zinc oxide has been tested for antimicrobial activity in this invention according to a test that is based upon the International Standard AATCC TM 100-2012. The AATCC TM 100-2012 standard tests for microbial activity on textiles, so the test was modified for use on solid and composite materials.

[3] = tested on: strep mutans; experiment: Antimicrobial activity, modified AATCC TM 100-2012 for solid and composite materials; type: cell-based; details: 1.0% Wt. Fract. ZnO in a direct filling composite resin
Experimental: as §1
(§2) As discussed above, microbial activity is measured using a modified AATCC TM 100-2012 standard for use on solid and composite materials.

[4] = tested on: e. coli; experiment: as above; type: cell-based; details: 1.0% Wt. Fract. ZnO in a direct filling composite resin
Experimental: as §1, §2

## [O]=[Zn] [Zinc Oxide, zinc oxide]
[1]; Wt. Fract. ZnO 0.8 in a direct filling composite resin
  Translucency: pass
[1]; Wt. Fract. ZnO 1.0 in a direct filling composite resin
  Translucency: fail
[2]
  antimicrobial activity: effective in killing bacteria
[3]
  % reduction of strep mutans: 100%
[4]
  % Reduction of e coli: 100%
